Data reported in the NIST ThermoML archive (doi:10.1016/j.jct.2017.02.022).
Numbers after ± are expanded uncertainties.

Key:
[1] = 101.3 kPa, Liquid; for speed of sound: Frequency=3 MHz, Sing-around technique in a fixed-path interferometer; for mass density: Vibrating tube method
[2] = molar heat capacity at constant pressure; conditions: 101.33 kPa, Liquid, Small sample (50 mg) DSC
[3] = refractive index (Na D-line) (dimensionless); conditions: 101.3 kPa, Liquid, Standard Abbe refractometry
[4] = xn = mol fraction of the nth substance listed; conditions: 101.3 kPa, Liquid, x2 = 0; for speed of sound: Frequency=3 MHz, Sing-around technique in a fixed-path interferometer; for mass density: Vibrating tube method
[5] = refractive index (Na D-line) (dimensionless); xn = mol fraction of the nth substance listed; conditions: 101.3 kPa, Liquid, Standard Abbe refractometry, x2 = 0

| SMILES | speed of sound ([1]; 298 K) [m/s] | mass density ([1]; 298 K) [kg/m3] | speed of sound ([1]; 303 K) [m/s] | mass density ([1]; 303 K) [kg/m3] | speed of sound ([1]; 308 K) [m/s] | mass density ([1]; 308 K) [kg/m3] | speed of sound ([1]; 313 K) [m/s] | mass density ([1]; 313 K) [kg/m3] | speed of sound ([4]; 298 K) [m/s] | mass density ([4]; 298 K) [kg/m3] | speed of sound ([4]; 303 K) [m/s] | mass density ([4]; 303 K) [kg/m3] | speed of sound ([4]; 308 K) [m/s] | mass density ([4]; 308 K) [kg/m3] | speed of sound ([4]; 313 K) [m/s] | mass density ([4]; 313 K) [kg/m3] | refractive index ([5]; 298 K) | refractive index ([5]; 303 K) | refractive index ([5]; 308 K) | refractive index ([5]; 313 K) | further results |
| --- | --- | --- | --- | --- | --- | --- | --- | --- | --- | --- | --- | --- | --- | --- | --- | --- | --- | --- | --- | --- | --- |
| COS(=O)(=O)[O-].Cn1cc[n+](C)c1 [1,3-dimethylimidazolium methylsulfate] | 1811 ± 20 | 1329 ± 4 | 1799 ± 20 | 1322 ± 4 | 1787 ± 20 | 1319 ± 4 | 1775 ± 20 | 1315 ± 4 | – | – | – | – | – | – | – | – | – | – | – | – | molar heat capacity at constant pressure ([2]; 298 K): 298.1 ± 40 J/K/mol; molar heat capacity at constant pressure ([2]; 303 K): 303.1 ± 40 J/K/mol; molar heat capacity at constant pressure ([2]; 308 K): 308 ± 40 J/K/mol; molar heat capacity at constant pressure ([2]; 313 K): 312.9 ± 40 J/K/mol; refractive index ([3]; 298 K): 1.483 ± 0.01; refractive index ([3]; 303 K): 1.481 ± 0.01; refractive index ([3]; 308 K): 1.48 ± 0.01; refractive index ([3]; 313 K): 1.479 ± 0.01 |
| CCn1cc[n+](C)c1.COS(=O)(=O)[O-] [1-ethyl-3-methylimidazolium methylsulfate] | 1762 ± 20 | 1292 ± 2 | 1750 ± 20 | 1289 ± 2 | 1739 ± 20 | 1285 ± 2 | 1727 ± 20 | 1282 ± 2 | – | – | – | – | – | – | – | – | – | – | – | – | molar heat capacity at constant pressure ([2]; 298 K): 313.3 ± 40 J/K/mol; molar heat capacity at constant pressure ([2]; 303 K): 319.9 ± 40 J/K/mol; molar heat capacity at constant pressure ([2]; 308 K): 326.6 ± 40 J/K/mol; molar heat capacity at constant pressure ([2]; 313 K): 333.2 ± 40 J/K/mol; refractive index ([3]; 298 K): 1.48 ± 0.01; refractive index ([3]; 303 K): 1.479 ± 0.01; refractive index ([3]; 308 K): 1.478 ± 0.01; refractive index ([3]; 313 K): 1.476 ± 0.01 |
| CCCCO [butan-1-ol] | 1240 ± 20 | 806 ± 2 | 1224 ± 20 | 802 ± 2 | 1206 ± 20 | 798 ± 2 | 1190 ± 20 | 794 ± 2 | – | – | – | – | – | – | – | – | – | – | – | – | refractive index ([3]; 298 K): 1.397 ± 0.01; refractive index ([3]; 303 K): 1.395 ± 0.01; refractive index ([3]; 308 K): 1.392 ± 0.01; refractive index ([3]; 313 K): 1.389 ± 0.01 |
| CCCCO [butan-1-ol] + CCn1cc[n+](C)c1.COS(=O)(=O)[O-] | – | – | – | – | – | – | – | – | 1240 ± 20 | 806 ± 2 | 1224 ± 20 | 802 ± 2 | 1206 ± 20 | 798 ± 2 | 1190 ± 20 | 794 ± 2 | 1.397 ± 0.01 | 1.395 ± 0.01 | 1.392 ± 0.01 | 1.389 ± 0.01 | – |
| CCCCO [butan-1-ol] + COS(=O)(=O)[O-].Cn1cc[n+](C)c1 | – | – | – | – | – | – | – | – | 1240 ± 20 | 806 ± 2 | 1224 ± 20 | 802 ± 2 | 1206 ± 20 | 798 ± 2 | 1190 ± 20 | 794 ± 2 | 1.397 ± 0.01 | 1.395 ± 0.01 | 1.392 ± 0.01 | 1.389 ± 0.01 | – |
| CCCCCO [pentan-1-ol] | 1276 ± 20 | 811 ± 2 | 1259 ± 20 | 807 ± 2 | 1242 ± 20 | 803 ± 2 | 1226 ± 20 | 800 ± 2 | – | – | – | – | – | – | – | – | – | – | – | – | refractive index ([3]; 298 K): 1.408 ± 0.01; refractive index ([3]; 303 K): 1.407 ± 0.01; refractive index ([3]; 308 K): 1.406 ± 0.01; refractive index ([3]; 313 K): 1.404 ± 0.01 |
| CCCCCO [pentan-1-ol] + CCn1cc[n+](C)c1.COS(=O)(=O)[O-] | – | – | – | – | – | – | – | – | 1276 ± 20 | 811 ± 2 | 1259 ± 20 | 807 ± 2 | 1242 ± 20 | 803 ± 2 | 1226 ± 20 | 800 ± 2 | 1.408 ± 0.01 | 1.407 ± 0.01 | 1.406 ± 0.01 | 1.404 ± 0.01 | – |
| CCCCCO [pentan-1-ol] + COS(=O)(=O)[O-].Cn1cc[n+](C)c1 | – | – | – | – | – | – | – | – | 1276 ± 20 | 811 ± 2 | 1259 ± 20 | 807 ± 2 | 1242 ± 20 | 803 ± 2 | 1226 ± 20 | 800 ± 2 | 1.408 ± 0.01 | 1.407 ± 0.01 | 1.406 ± 0.01 | 1.404 ± 0.01 | – |
| CCCO [propan-1-ol] | 1208 ± 20 | 800 ± 2 | 1191 ± 20 | 796 ± 2 | 1174 ± 20 | 792 ± 2 | 1158 ± 20 | 789 ± 2 | – | – | – | – | – | – | – | – | – | – | – | – | refractive index ([3]; 298 K): 1.383 ± 0.01; refractive index ([3]; 303 K): 1.382 ± 0.01; refractive index ([3]; 308 K): 1.38 ± 0.01; refractive index ([3]; 313 K): 1.378 ± 0.01 |
| CCCO [propan-1-ol] + CCn1cc[n+](C)c1.COS(=O)(=O)[O-] | – | – | – | – | – | – | – | – | 1208 ± 20 | 800 ± 2 | 1191 ± 20 | 796 ± 2 | 1174 ± 20 | 792 ± 2 | 1158 ± 20 | 789 ± 2 | 1.383 ± 0.01 | 1.382 ± 0.01 | 1.38 ± 0.01 | 1.378 ± 0.01 | – |
| CCCO [propan-1-ol] + COS(=O)(=O)[O-].Cn1cc[n+](C)c1 | – | – | – | – | – | – | – | – | 1208 ± 20 | 800 ± 2 | 1191 ± 20 | 796 ± 2 | 1174 ± 20 | 792 ± 2 | 1158 ± 20 | 789 ± 2 | 1.383 ± 0.01 | 1.382 ± 0.01 | 1.38 ± 0.01 | 1.378 ± 0.01 | – |
